Data published in PMC5651918, “Evolving stability and pH-dependent activity of the high redox potential Botrytis aclada laccase for enzymatic fuel cells” (Scientific Reports, 2017).

Biological target: T1, Botrytis aclada laccase (BaL WT) (Botrytis aclada, UniProt H8ZRU2)
T1 construct: BaL cDNA, secreted recombinant from Pichia pastoris X-33 (pGAPZ A, pBaLac)
T1 sequence (H8ZRU2 20-580): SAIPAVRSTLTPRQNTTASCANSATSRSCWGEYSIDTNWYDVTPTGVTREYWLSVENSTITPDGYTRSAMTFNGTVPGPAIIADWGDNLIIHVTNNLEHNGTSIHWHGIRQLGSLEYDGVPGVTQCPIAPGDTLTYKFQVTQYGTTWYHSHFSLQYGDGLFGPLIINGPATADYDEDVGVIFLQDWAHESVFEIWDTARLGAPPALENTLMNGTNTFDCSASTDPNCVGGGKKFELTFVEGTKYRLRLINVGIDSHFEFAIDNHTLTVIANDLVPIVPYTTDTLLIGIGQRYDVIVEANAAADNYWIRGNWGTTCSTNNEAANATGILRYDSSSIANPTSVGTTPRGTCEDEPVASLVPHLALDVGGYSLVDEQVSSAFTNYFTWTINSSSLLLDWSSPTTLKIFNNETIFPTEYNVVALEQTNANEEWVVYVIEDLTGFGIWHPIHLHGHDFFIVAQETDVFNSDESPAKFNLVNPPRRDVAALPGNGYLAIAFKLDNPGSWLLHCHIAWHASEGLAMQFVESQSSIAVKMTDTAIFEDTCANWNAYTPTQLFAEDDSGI
Assay: steady-state photometric kinetics, Michaelis-Menten fit
Assay type: biochemical
Conditions: pH 3.0, 4.5 and 6.0; apparent constants

For `CCn1c(=NN=c2sc3cc(S(=O)(=O)O)ccc3n2CC)sc2cc(S(=O)(=O)O)ccc21` [ABTS, 2,2′-azino-bis(3-ethylbenzothiazoline-6-sulfonic acid)], the KM was “apparent steady-state kinetic constants were determined for the two substrates DMP and ABTS”.
With `COc1cccc(OC)c1O` [DMP, 2,6-dimethoxyphenol] the KM was “apparent steady-state kinetic constants were determined for the two substrates DMP and ABTS”.
